Measured values from patent US8822448B2, “Pyrazoloquinoline compound” (Astellas Pharma Inc., priority 2010, dated 2014).
Where a name gives a salt, the structure may show the parent alone.

Columns and labels:
PDE9 = PDE9 (Homo sapiens (Human), UniProt O76083); assay: PDE9-inhibiting activity (SPA enzyme assay); assay type: biochemical; details: IC50 values; cGMP 1 μM substrate, 30° C.; read-out: PDE9 inhibition
Method: The PDE9-inhibiting activity was measured by the following method. That is, to a buffer solution containing tris(hydroxymethyl)aminomethane-hydrochloric acid (40 mM, pH 8.0), magnesium chloride (5 mM), and 2-mercaptoethanol (4 mM) were added cGMP (1 μM) and ^3H-cGMP (0.33 μCi/ml) to give a substrate buffer solution. A test substance solution and an enzyme solution which had been adjusted to an optimal concentration were added thereto to perform a reaction at 30° C. The enzyme reaction was stopped by the addition of Scintillation Proximity Assay (SPA) Beads (Perkin Elmer, USA) containing 5 mM 3-isobutyl-1-methylxanthine (IBMX). For the enzyme activity, the amount of 5′-GMP, which is a reaction degradation product bound to SPA beads, was measured with a TopCount microplate reader (Hewlett Packard, USA). The inhibitory rate was calculated by taking the radioactivity of the control containing no test substance as (A), taking the radioactivity of the blank containing no enzyme as (B), and taking the radioactivity of the test substance as (C), and using the following equation.

[1] = test system: urethra relaxation response; assay: Simultaneous measurement model for rat bladder contraction/urethra relaxation responses; assay type: in vivo; details: female SD rat, increase relative to the solvent administration group, read-out: Ratio with increased urethra relaxation time during voiding (vs vehicle) (%)
Method: Simultaneous measurement of the bladder contraction and urethra relaxation responses using a rat was carried out with a partial modification of a method in Wibberley et al. (Wibberley, A., et al., Br. J. Pharmacol., 136: pp. 399-414 (2002)). That is, a female Sprague-Dawley (SD) rat (Charles River Laboratories Japan, Inc.) was anesthetized with urethane, and the bladder was exposed by a midline incision in the lower abdomen. A double lumen cannula (a cannula having a dual structure by PE190 and PE50) from the bladder apex was inserted into the bladder, and the bladder apex and the cannula were fixed by sutures at a point where the tip reached the proximal urethra. While infusing physiological saline into the urethra through the outer cannula, the urethral inner pressure was measured by a pressure transducer through the inner cannula with a saline solution infused into the urethra through the outer cannula. On the other hand, a single cannula (PESO) was inserted into the bladder from the bladder apex and placed therein. The inner pressure of the bladder was measured through this cannula. After a postoperative stabilization period had passed, physiological saline was infused into the bladder through the cannula of the bladder apex to cause a bladder contraction reaction, and thus cause a urethra relaxation response accompanying the bladder contraction reflex. The test substance was administered intravenously or intraduodenally.

Chain of PDE9 (O76083 whole entry): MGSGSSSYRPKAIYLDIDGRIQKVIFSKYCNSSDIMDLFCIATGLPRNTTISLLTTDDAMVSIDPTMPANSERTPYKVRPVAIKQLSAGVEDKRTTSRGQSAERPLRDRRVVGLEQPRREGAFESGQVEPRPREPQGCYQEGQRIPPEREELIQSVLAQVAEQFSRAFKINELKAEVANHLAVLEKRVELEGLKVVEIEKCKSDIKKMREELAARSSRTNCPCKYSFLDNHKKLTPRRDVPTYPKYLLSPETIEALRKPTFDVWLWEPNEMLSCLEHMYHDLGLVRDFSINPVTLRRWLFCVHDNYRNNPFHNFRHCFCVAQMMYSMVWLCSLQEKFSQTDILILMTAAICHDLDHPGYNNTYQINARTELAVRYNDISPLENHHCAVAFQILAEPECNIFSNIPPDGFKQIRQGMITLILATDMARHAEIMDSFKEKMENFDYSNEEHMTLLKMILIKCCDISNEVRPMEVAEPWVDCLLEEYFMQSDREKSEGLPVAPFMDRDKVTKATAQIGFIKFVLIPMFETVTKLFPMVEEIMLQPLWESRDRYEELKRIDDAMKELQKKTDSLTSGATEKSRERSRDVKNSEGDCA

Row | Structure (SMILES) | melting point | IC50 (PDE9) [nM] | response vs control in vivo at 1 mg/kg [1] [%]
1 | Cc1cc2[nH]c(=O)c3cnn(C4CCOCC4)c3c2cc1C(=O)N1CCN(Cc2cccnc2)CC1 (as salt: hydrochloride) [Example 2, 7-methyl-8-{[4-(pyridin-3-ylmethyl)piperazin-1-yl]carbonyl}-1-(tetrahydro-2H-pyran-4-yl)-1,5-dihydro-4H-pyrazolo[4,3-c]quinolin-4-one dihydrochloride] | 259 to 263 °C |  | 
2 | O=C(c1ccc2c(c1)[nH]c(=O)c1cnn(C3CCCC3)c12)N1CCc2cc(Cl)ccc21 [Example 1, 7-[(5-chloro-2,3-dihydro-1H-indol-1-yl)carbonyl]-1-cyclopentyl-1,5-dihydro-4H-pyrazolo[4,3-c]quinolin-4-one] | 291 to 294 °C | 18 | 
3 | O=C(c1ccc2c(c1)[nH]c(=O)c1cnn(C3CCOCC3)c12)N1CCCC(c2ccccc2)C1 (centres unmarked) [Example 11] | 298 to 301 °C |  | 
4 | O=C(c1ccc2c(c1)[nH]c(=O)c1cnn(C3CCOCC3)c12)N1CCc2cc(Cl)ccc21 [Example 12] | 341 to 343 °C | 8.6 | 
5 | CN1CCN(C(=O)c2ccc3c(c2)[nH]c(=O)c2cnn(C4CCOCC4)c23)CC1c1ccccc1 (centres unmarked) [Example 13] | 183 to 186 °C | 85 | 
6 | O=C(c1ccc2c(c1)[nH]c(=O)c1cnn(C3CCOCC3)c12)N1CCOC(c2ccc(F)cc2)C1 (centres unmarked) [Example 14] | 293 to 296 °C | 81 | 
7 | COc1cc2c(cn1)N(C(=O)c1ccc3c(c1)[nH]c(=O)c1cnn(C4CCOCC4)c13)CC2 [Example 15] | 337 to 340 °C |  | 
8 | Cc1cc2[nH]c(=O)c3cnn(C4CCOCC4)c3c2cc1C(=O)N1CCC2(CCN(Cc3ccccc3)CC2)CC1 [Example 16] | 221 to 224 °C | 9.1 | 
9 | Cc1cc2[nH]c(=O)c3cnn(C4CCOCC4)c3c2cc1C(=O)N1CCN(c2ccccn2)CC1 [Example 17] | 272 to 275 °C | 2.1 | 
10 | Cc1nn(C2CCCC2)c2c1c(=O)[nH]c1cc(C(=O)N3CCc4cc(F)ccc43)ccc12 [Example 18] | 321 to 323 °C |  | 
11 | O=C(c1ccc2c(c1)[nH]c(=O)c1cnn(C3CCOCC3)c12)N1Cc2cccc(F)c2C1 [Example 19] | 312 to 318 °C (dec.) |  | 
12 | O=C(c1ccc2c(c1)[nH]c(=O)c1cnn(C3CCOCC3)c12)N1CCOC(c2ccccc2F)C1 (centres unmarked) [Example 20] | 174 to 176 °C |  | 
13 | Cc1cc2[nH]c(=O)c3cnn(C4CCOCC4)c3c2cc1C(=O)N1CCN(C)C(c2ccccc2)C1 (centres unmarked) [Example 21] | 253 to 256 °C |  | 
14 | Cc1cc2[nH]c(=O)c3cnn(C4CCOCC4)c3c2cc1C(=O)N1CCC(Oc2ccccn2)CC1 [Example 22] | 250 to 253 °C | 2.2 | 142
15 | Cc1cc2[nH]c(=O)c3cnn(C4CCOCC4)c3c2cc1C(=O)NCC1(N2CCOCC2)CCCCC1.Cl [Example 23] | 281 to 283 °C | 0.4 | 168
16 | COCC1CCN(C(=O)c2cc3c(cc2C)[nH]c(=O)c2cnn(C4CCOCC4)c23)CC1.Cl [Example 28] | 253 to 255 °C | 9.1 | 
17 | CCOC1CCN(C(=O)c2cc3c(cc2C)[nH]c(=O)c2cnn(C4CCOCC4)c23)CC1 [Example 40] |  | 8.9 | 138
18 | Cc1cc2[nH]c(=O)c3cnn(C4CCOCC4)c3c2cc1C(=O)N1CCC(OCC2CC2)CC1 [Example 41] | 206 to 208 °C | 5.7 | 159
19 | COCCN1CCN(C(=O)c2cc3c(cc2C)[nH]c(=O)c2cnn(C4CCOCC4)c23)C[C@@H]1c1ccccc1 [Example 47] | 218 to 220 °C |  | 
20 | Cc1cc2[nH]c(=O)c3cnn(C4CCOCC4)c3c2cc1C(=O)N1CCOC(c2cccnc2)C1 (centres unmarked) [Example 48] | 266 to 268 °C |  | 
21 | Cc1cc2[nH]c(=O)c3cnn(C4CCOCC4)c3c2cc1C(=O)N1CCN(C)C(c2cccnc2)C1 (centres unmarked) [Example 49] | 255 to 257 °C | 3.9 | 
22 | CCCOC1CCN(C(=O)c2cc3c(cc2C)[nH]c(=O)c2cnn(C4CCOCC4)c23)CC1 [Example 53] | 216 to 218 °C | 3.9 | 145
23 | Cc1cc2[nH]c(=O)c3cnn(C4CCC4)c3c2cc1C(=O)N1CCN(CC2CCOCC2)CC1 [Example 55] |  | 15 | 166
24 | CCOCC1CCN(C(=O)c2cc3c(cc2C)[nH]c(=O)c2cnn(C4CCOCC4)c23)CC1 [Example 56] |  | 4.4 | 158

Further lines, with some results ahead:

Row | melting point | IC50 (PDE9) [nM] | Structure (SMILES) | response vs control in vivo at 1 mg/kg [1] [%]
25 | 254 to 256 °C |  | Cc1cc2[nH]c(=O)c3cnn(C4CCOCC4)c3c2cc1C(=O)N1CCN(CCCc2cccnc2)CC1 [Example 57] | 
26 | 263 to 265 °C |  | Cc1cc2[nH]c(=O)c3cnn(C4CCCC4)c3c2cc1C(=O)N1CCN(C2CCOCC2)CC1 [Example 58] | 
27 | 217 to 219 °C | 8.4 | CCOCCCN1CCN(C(=O)c2cc3c(cc2C)[nH]c(=O)c2cnn(C4CCOCC4)c23)CC1 [Example 63] | 
28 | 122 to 124 °C |  | Cc1cc2[nH]c(=O)c3cnn(C4CCOCC4)c3c2cc1C(=O)N1CCN(CCCOC(C)C)CC1 [Example 64] | 
29 | 241 to 242 °C | 4.3 | COCCC1CCN(C(=O)c2cc3c(cc2C)[nH]c(=O)c2cnn(C4CCOCC4)c23)CC1 [Example 66] | 
30 | 234 to 236 °C |  | COCCCCN1CCN(C(=O)c2cc3c(cc2C)[nH]c(=O)c2cnn(C4CCCC4)c23)CC1 [Example 67] | 
31 | 238 to 240 °C |  | Cc1cc2[nH]c(=O)c3cnn(C4CCOCC4)c3c2cc1C(=O)N1CCN(CCCOC(C)(C)C)CC1 [Example 77] | 
32 | 161 to 163 °C | 23 | COCCCCN1CCN(C(=O)c2cc3c(cc2C)[nH]c(=O)c2cnn(C4CCC4)c23)CC1 [Example 79] | 139
33 | 240 to 242 °C | 9.3 | COCCCCN1CCN(C(=O)c2cc3c(cc2C)[nH]c(=O)c2cnn(C4CCOCC4)c23)CC1.Cl [Example 84] | 154
34 | 226 to 228 °C | 3.3 | CCOCC1CN(C(=O)c2cc3c(cc2C)[nH]c(=O)c2cnn(C4CCOCC4)c23)C1 [Example 86] | 
35 | 178 to 180 °C |  | COCCCCN1CCN(C(=O)c2cc3c(cc2C)[nH]c(=O)c2cnn(CC4CCC4)c23)CC1 [Example 90] | 
36 | 272 to 274 °C |  | CCN1CCN(C(=O)c2cc3c(cc2C)[nH]c(=O)c2cnn(C4CCOCC4)c23)CC1c1cccnc1 (centres unmarked) [Example 91] | 
37 | 186 to 188 °C |  | COCCCN1CCN(C(=O)c2cc3c(cc2C)[nH]c(=O)c2cnn(CC4CCC4)c23)CC1 [Example 97] | 
38 | 207 to 208 °C | 13 | COCCCCN1CCN(C(=O)c2cc3c(cc2C)[nH]c(=O)c2cnn(CC4CC4)c23)CC1.Cl [Example 103] | 
39 |  | 5.8 | CCOCCCCN1CCN(C(=O)c2cc3c(cc2C)[nH]c(=O)c2cnn(C4CCOCC4)c23)C[C@@H]1C [Example 109] | 158
40 | 212 to 213 °C | 8.3 | COCC(F)(F)CN1CCN(C(=O)c2cc3c(cc2C)[nH]c(=O)c2cnn(C4CCOCC4)c23)CC1 [Example 133] | 
41 | 210 to 211 °C | 8.4 | Cc1cc2[nH]c(=O)c3cnn(C4CCOCC4)c3c2cc1C(=O)N1CCC(OCC(C)(F)F)CC1 [Example 176] | 
42 | 205 to 206 °C | 9.7 | Cc1cc2[nH]c(=O)c3cnn(C4CCOCC4)c3c2cc1C(=O)N1CCC(OC[C@@H](C)F)CC1 [Example 177] | 
43 | 210 to 211 °C | 4.4 | Cc1cc2[nH]c(=O)c3cnn(C4CCOCC4)c3c2cc1C(=O)N1CCC(COC2CC2)CC1 [Example 217] | 
44 | 197 to 198 °C | 17 | Cc1cc2[nH]c(=O)c3cnn([C@H]4CCOC4)c3c2cc1C(=O)N1CCC(OC2CC2)CC1 [Example 218] | 
45 | 228 to 230 °C |  | Cc1cc2[nH]c(=O)c3cnn(C4CCOCC4)c3c2cc1C(=O)N1CCN(C2CCCC2)CC1 [Example 255] | 
46 |  | 28 | CCOCCCCN1CCN(C(=O)c2cc3c(cc2C)[nH]c(=O)c2cnn([C@H]4CCOC4)c23)CC1 [Example 660] | 
47 |  | 9.8 | COCCC1CCN(C(=O)c2cc3c(cc2C)[nH]c(=O)c2cnn([C@H]4CCOC4)c23)CC1 [Example 668] | 
